T1: α-Gal A (Homo sapiens, UniProt P06280)
T1 construct: purchased JCR Pharmaceuticals Co. Ltd, (Japan) JR-051; host or cells: CHO cells
T1 sequence (P06280 32-429): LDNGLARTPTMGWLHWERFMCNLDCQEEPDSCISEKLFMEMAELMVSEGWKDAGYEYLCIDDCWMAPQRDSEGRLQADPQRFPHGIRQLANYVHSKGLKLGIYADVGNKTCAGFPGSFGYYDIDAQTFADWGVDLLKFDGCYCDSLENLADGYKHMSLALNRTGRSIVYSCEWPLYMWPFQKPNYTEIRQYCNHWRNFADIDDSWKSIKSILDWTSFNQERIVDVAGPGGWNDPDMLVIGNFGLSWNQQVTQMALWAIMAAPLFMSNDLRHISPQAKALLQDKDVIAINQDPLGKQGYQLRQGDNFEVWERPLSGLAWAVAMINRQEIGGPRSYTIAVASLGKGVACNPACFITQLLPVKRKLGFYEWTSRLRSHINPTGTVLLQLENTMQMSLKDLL

B1: Fabrazyme: Agalsidase beta, produced by recombinant DNA technology in a Chinese hamster ovary (CHO) cell line; Genzyme Corporation (protein, UniProt P06280 32-429, looked up)
Alpha-galactosidase A: LDNGLARTPTMGWLHWERFMCNLDCQEEPDSCISEKLFMEMAELMVSEGWKDAGYEYLCIDDCWMAPQRDSEGRLQADPQRFPHGIRQLANYVHSKGLKLGIYADVGNKTCAGFPGSFGYYDIDAQTFADWGVDLLKFDGCYCDSLENLADGYKHMSLALNRTGRSIVYSCEWPLYMWPFQKPNYTEIRQYCNHWRNFADIDDSWKSIKSILDWTSFNQERIVDVAGPGGWNDPDMLVIGNFGLSWNQQVTQMALWAIMAAPLFMSNDLRHISPQAKALLQDKDVIAINQDPLGKQGYQLRQGDNFEVWERPLSGLAWAVAMINRQEIGGPRSYTIAVASLGKGVACNPACFITQLLPVKRKLGFYEWTSRLRSHINPTGTVLLQLENTMQMSLKDLL

Experiments:
[1] = Tissue uptake of α-Gal A (JR-051) in WT mice following single IV infusion; type: in vivo; details: data not shown
Protocol: (§1) Table 1 describes the molar ratios of these compounds:
(§2) Plasma was collected at 0, 15, 30, 45, 60, and 90 min, and 24 hrs post-JR-051. Skin, heart, and kidney were collected 24 hrs post-JR-051. JR-051 plasma levels and tissue uptake were assessed by activity and Western blotting (see Methods section below). A comparison was made between JR-051 administered alone and JR-051 co-formulated with AT1001 groups.
A BCA Protein Assay (Pierce, Rockford, Ill.) was used according to the manufacturer's instructions to determine total protein concentration in tissue lysates. […] For tissue Westerns exactly same procedure was followed as described above for plasma except that 50 μg tissue lysate was used.

[2] = test system: R301Q fibroblast cells derived from Fabry patients; test: α-Gal A uptake and GL-3 reduction in R301Q Fabry patient fibroblasts; type: cell-based, human; details: 0.5 nM enzyme co-formulated with 0.1-100 μM DGJ vs alone
Protocol: The effect of co-formulating α-Gal A with DGJ on α-Gal A uptake and GL-3 reduction in R301Q and C52S fibroblast cells derived from Fabry patients was determined. 0.5 nM α-Gal A was tested alone or co-formulated with 0.1, 1.0, 10 or 100 μM DGJ. […] The graph bars represent the average of compiled data from 4 separate experiments.
Further reduction after co-incubation with DGJ is also similar between the two enzymes (˜40-50% of baseline). The graph bars represent the average of compiled data from 4 separate experiments.

[3] = test system: GL-3; test: GL-3 reduction in skin, heart and kidney of GLA KO mice, repeat IV bolus administration; type: in vivo; details: DGJ 0 mg/kg, 4 biweekly IV bolus
Protocol: Repeat administration of co-formulated product was tested in fourteen-week old GLA KO mice. The mice received four biweekly (once every two weeks) IV bolus injections of 0.5, 1 or 3 mg/kg α-Gal A (JR-051) alone, or co-formulated with 0.3, 1, 3 or 10 mg/kg of DGJ (AT1001). Plasma and tissue levels of α-Gal A, and tissue levels of GL-3 were measured.
Mouse tissues were homogenized in water (1:16.7 tissue:water) using a Fast Prep homogenizer (Pro Scientific, Thorofare, N.J.). Acetone:methanol (50:50) was added at 5× the volume of the homogenate. Samples were vortexed, re-homogenized in the Fast Prep system, and centrifuged at 10600 g for 10 minutes at room temperature. Each supernatant (200 μL of the upper organic portion) was prepared for solid phase extraction by addition of 200 μL dimethyl sulfoxide (DMSO), 50 μL lactosyl ceramide internal standard (from bovine buttermilk; Matreya, LLC, Pleasant Gap, Pa.) at a final concentration of 1.4 μg/mL, and 600 μL of water:methanol (13:87), followed by vortexing. Solid phase extraction was conducted on a pre-conditioned Bond Elut 40 μm, 100 mg C-18 column (Varian Inc, Palo Alto, Calif.) by washing with 67:23:10 methanol:acetone:water and elution with 1 mL of 9:1 acetone:methanol into silanized glass culture tubes containing 200 μL 0.2 mM sodium acetate in DMSO. Total GL-3 levels were determined from 20 μL of each sample extract by liquid chromatography-tandem mass spectroscopy (LC-MS/MS). LC was conducted using an acetone:methanol:acetonitrile (ACN) with sodium acetate binary mobile phase system (mobile phase A: 40:60 methanol:water with 0.1 mM sodium acetate; mobile phase B: 75:15:10 acetone:methanol:ACN with 0.1 mM sodium acetate) with a flow rate of 0.5 mL/min on a C18 column (Aqua 3 μm 100×3.0 mm, 125 A, Phenomenex, Torrance, Calif.). The final GL-3 elution condition was 90% mobile phase B. MS/MS analysis was carried out under positive ion mode (ESI+) and twelve different isoforms of GL-3 [C16:0, C18:0, C20:0, C22:1, C22:0, C23:0, C22:0(2OH), C24:2, C24:1, C24:0, C24:1(2OH), C24:0(2OH)] as well as internal standard were identified in each sample. The following transitions were monitored: m/z 1046.70→m/z 884.7 for C16:0; m/z 1074.8→m/z 912.8 for C18:0; m/z 1102.8→m/z 940.8 for C20:0; m/z 1128.8→m/z 966.8 for C22:1; m/z 1130.9→m/z 968.8 for C22:0; m/z 1144.9→m/z 982.8 for C23:0; m/z 1146.9→m/z 984.8 for C22:0(2OH); m/z 1154.9→m/z 992.8 for C24:2; m/z 1156.9→m/z 994.8 for C24:1; m/z 1158.9→m/z 996.9 for C24:0; m/z 1172.9→m/z 1010.8 for C24:1(2OH); m/z 1174.9→m/z 1012.8 for C24:0(2OH); and m/z 982.9→m/z 820.8 for the lactosyl ceramide internal standard. For quantitation, the area counts for each isoform were determined and then summed to obtain the total GL-3 area counts. The ratio of the total GL-3 area counts to that of the internal standard was determined and used to calculate the final concentration of GL-3 in each sample based on a linear least squares fit equation applied to an 11-point calibration curve prepared in DMSO. Total GL-3 measurements were normalized to the wet tissue weight of each sample.

[4] = molecular target: T1, α-Gal A; test: α-Gal A stability in whole blood ex vivo at 37° C.; type: in vitro ADME; details: 5 nM and 50 nM α-Gal A formulated without DGJ
Protocol: The effect of co-formulating α-Gal A with DGJ on α-Gal A stability in blood ex vivo was examined. Time-dependent loss of α-Gal A activity in whole blood at 37° C. was determined. 5 nM and 50 nM α-Gal A was formulated with or without 10 μM DGJ.

[5] = Plasma PK of α-Gal A (JR-051) in WT mice following single IV infusion; type: in vivo; details: JR-051 1 mg/kg single IV infusion
Protocol: as §1, §2
Diluted plasma (1:50) in Lysis Buffer (˜10 μg total protein) was subjected to SDS-PAGE on 4-12% polyacrylamide gels (Invitrogen, Grand Island, N.Y.), transferred to nitrocellulose membranes (Invitrogen), and immunoblotted with rabbit anti-human α-Gal A primary antibody (1:2000 dilution; from Shire Pharmaceuticals, Cambridge, Mass.). Protein bands were detected using peroxidase-conjugated goat anti-rabbit secondary antibody (Jackson Immunosearch Labs, West Grove, Pa.) in combination with enhanced chemiluminescence (Pierce, Rockford, Ill.). Blots were scanned on an Image Station 4000R (Kodak, Rochester, N.Y.).

Row | Molecule | effect on α-Gal A uptake in skin [1] | increase of enzyme uptake by DGJ [2] | GL-3% reduction in heart ([3]; α-Gal A 0.5 mg/kg) [%] | GL-3% reduction in kidney ([3]; α-Gal A 0.5 mg/kg) [%] | GL-3% reduction in skin ([3]; α-Gal A 0.5 mg/kg) [%] | GL-3% reduction in heart ([3]; α-Gal A 1 mg/kg) [%] | GL-3% reduction in kidney ([3]; α-Gal A 1 mg/kg) [%] | GL-3% reduction in skin ([3]; α-Gal A 1 mg/kg) [%] | GL-3% reduction in heart ([3]; α-Gal A 3 mg/kg) [%] | GL-3% reduction in kidney ([3]; α-Gal A 3 mg/kg) [%] | GL-3% reduction in skin ([3]; α-Gal A 3 mg/kg) [%] | half-life of α-Gal A in whole blood [4] [h] | AUC [5] [nmol/mL] | T1/2 [5] [min]
1 | JR-051: recombinant human α-Gal A produced in CHO cells transformed with an expression vector encoding the human α-Gal A gene (JCR Pharmaceuticals) | no significant effect | up to 3 fold | 72.1 | 42.7 | 85.7 | 82.7 | 54.9 | 90.7 | 93.7 | 69.5 | 97.4 | 4 to 5 | 17960 | 6.6
2 | B1 |  | up to 4.6 fold |  |  |  |  |  |  |  |  |  |  |  | 

Source: US10155027B2, “Alpha-galactosidase A and 1-deoxygalactonojirimycin co-formulation for the treatment of fabry disease” (Amicus Therapeutics, Inc., priority 2012, dated 2018)
